# Tests used:
# [1] = molecular target: human recombinant BACE2 (Homo sapiens (Human), UniProt Q9Y5Z0); experiment: In vitro enzymatic BACE2 FRET assay; assay type: biochemical; conditions: read-out: IC50 IP (μM) BACE2 enzyme
# Summary of the method: (§1)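 Fluorescence from cleavage of a quenched peptide spanning the BACE site (50 nM) was read at 488 nm excitation, 590 nm emission. Purified enzyme (Ni-NTA) and compound reacted for one hour before a Tris stop shifted pH to neutral.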
# [2] = test system: Aβ40 in conditioned medium of cells stably expressing Amyloid Precursor Protein (APP); experiment: In vitro BACE-1 cell-based assay (Aβ40 sandwich ELISA); conditions: read-out: IC50 IP (μM) BACE1 cell
# Summary of the method: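 Aβ40 in supernatants measured by time-resolved fluorescence sandwich ELISA, with pAb40 as capture and biotin-6E10 as detector antibody, each incubated at 4 °C.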
# [3] = molecular target: Recombinant Cat D (Homo sapiens (Human), UniProt P07339); experiment: In vitro enzymatic Cathepsin D (Cat D) FRET assay; assay type: biochemical; conditions: read-out: IC50 IP (μM) CatD
# Summary of the method: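 CHO-expressed enzyme; buffer 0.05 M citrate pH 3.5, 5 mM CHAPS, 10% DMSO final. Start with FRET substrate 20 nM, 1 h incubation, Tris stop (pH to neutral), fluorescence ex 500 nm/em 580 nm.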
# [4] = molecular target: human recombinant BACE1 (Homo sapiens (Human), UniProt P56817); experiment: In vitro enzymatic BACE1 FRET assay; assay type: biochemical; conditions: read-out: IC50 IP (μM) BACE1 enzyme
# Summary of the method: as §1
# human recombinant BACE2, sequence (Q9Y5Z0 63-518): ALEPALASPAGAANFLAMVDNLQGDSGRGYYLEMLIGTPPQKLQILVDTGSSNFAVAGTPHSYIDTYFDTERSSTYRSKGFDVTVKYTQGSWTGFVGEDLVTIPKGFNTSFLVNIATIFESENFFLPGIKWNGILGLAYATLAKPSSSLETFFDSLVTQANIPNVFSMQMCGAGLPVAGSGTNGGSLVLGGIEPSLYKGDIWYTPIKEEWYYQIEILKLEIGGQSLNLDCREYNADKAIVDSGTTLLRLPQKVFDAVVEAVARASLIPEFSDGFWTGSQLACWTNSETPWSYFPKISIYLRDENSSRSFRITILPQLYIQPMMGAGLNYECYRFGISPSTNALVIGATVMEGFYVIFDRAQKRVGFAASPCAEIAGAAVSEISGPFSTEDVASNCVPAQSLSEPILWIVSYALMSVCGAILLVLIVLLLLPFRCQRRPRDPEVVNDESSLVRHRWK
# human recombinant BACE1, sequence (P56817 46-501): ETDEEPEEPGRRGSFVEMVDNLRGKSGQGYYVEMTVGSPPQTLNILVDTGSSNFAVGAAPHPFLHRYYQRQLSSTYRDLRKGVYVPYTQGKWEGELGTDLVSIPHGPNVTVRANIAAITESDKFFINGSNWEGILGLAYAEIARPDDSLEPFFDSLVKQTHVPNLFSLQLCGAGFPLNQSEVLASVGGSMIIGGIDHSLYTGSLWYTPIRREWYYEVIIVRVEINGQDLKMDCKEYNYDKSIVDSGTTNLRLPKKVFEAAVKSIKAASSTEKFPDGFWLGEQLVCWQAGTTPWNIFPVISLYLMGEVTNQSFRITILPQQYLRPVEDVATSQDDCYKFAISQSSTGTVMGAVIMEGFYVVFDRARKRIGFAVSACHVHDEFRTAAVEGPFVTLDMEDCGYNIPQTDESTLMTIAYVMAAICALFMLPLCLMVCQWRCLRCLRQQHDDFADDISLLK
# Recombinant Cat D, sequence (P07339 65-412): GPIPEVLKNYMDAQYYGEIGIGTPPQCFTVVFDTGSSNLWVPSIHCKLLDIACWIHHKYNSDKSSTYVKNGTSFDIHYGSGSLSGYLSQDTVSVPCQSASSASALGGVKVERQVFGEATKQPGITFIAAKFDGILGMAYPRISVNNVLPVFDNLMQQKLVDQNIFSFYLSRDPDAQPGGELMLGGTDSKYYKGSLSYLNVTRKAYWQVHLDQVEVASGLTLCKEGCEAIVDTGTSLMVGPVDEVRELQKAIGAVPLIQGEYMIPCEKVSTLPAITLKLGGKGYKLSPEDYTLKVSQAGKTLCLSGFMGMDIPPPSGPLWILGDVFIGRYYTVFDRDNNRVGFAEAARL
SMILES,IC50 [1] [µM],IC50 [2] [µM],IC50 [3] [µM],IC50 [4] [µM]
"C#CCOc1cnc(C(=O)Nc2cnc(F)c([C@@]3(C)N=C(N)S[C@@]4(CF)C[C@H]43)c2)c(C)n1 [Example 603, N-(5-((1S,5S,6S)-3-amino-1-(fluoromethyl)-5-methyl-2-thia-4-azabicyclo[4.1.0]hept-3-en-5-yl)-6-fluoro-3-pyridinyl)-3-methyl-5-(2-propyn-1-yloxy)-2-pyrazinecarboxamide]",0.0132,0.0037,336,0.0016
"C[C@]1(c2cc(Nc3nccc4cc(C#N)cnc34)cnc2F)N=C(N)S[C@@]2(CF)C[C@H]21 [Example 604, 8-((5-((1S,5S,6S)-3-amino-1-(fluoromethyl)-5-methyl-2-thia-4-azabicyclo[4.1.0]hept-3-en-5-yl)-6-fluoro-3-pyridinyl)amino)-1,7-naphthyridine-3-carbonitrile]",0.00378,0.00933,571,0.00624
"C[C@]1(c2cc(Nc3ncnc4cc(OCc5ncco5)cnc34)cnc2F)N=C(N)S[C@@]2(CF)C[C@H]21 [Example 605, N-(5-((1S,5S,6S)-3-amino-1-(fluoromethyl)-5-methyl-2-thia-4-azabicyclo[4.1.0]hept-3-en-5-yl)-6-fluoro-3-pyridinyl)-7-(1,3-oxazol-2-ylmethoxy)pyrido[3,2-d]pyrimidin-4-amine]",0.114,0.00149,1290,0.00178
"C#CCOc1cnc(C(=O)Nc2cnc(F)c([C@@]3(C)N=C(N)S[C@@]4(CF)C[C@H]43)c2)cn1 [Example 606, N-(5-((1S,5S,6S)-3-amino-1-(fluoromethyl)-5-methyl-2-thia-4-azabicyclo[4.1.0]hept-3-en-5-yl)-6-fluoropyridin-3-yl)-5-(prop-2-yn-1-yloxy)pyrazine-2-carboxamide]",0.00931,0.000849,278,0.00032
"C[C@]1(c2cc(NC(=O)c3cnc(OCc4ncco4)cn3)cnc2F)N=C(N)S[C@@]2(CF)C[C@H]21 [Example 607, N-(5-((1S,5S,6S)-3-amino-1-(fluoromethyl)-5-methyl-2-thia-4-azabicyclo[4.1.0]hept-3-en-5-yl)-6-fluoro-3-pyridinyl)-5-(1,3-oxazol-2-ylmethoxy)-2-pyrazinecarboxamide]",0.0237,0.000956,> 400,0.000975
"C[C@]1(c2cc(Nc3ncnc4cc(OCc5ncco5)cnc34)cnc2F)N=C(N)S[C@@]2(CC#N)C[C@H]21 [Example 608, ((1R,5S,6S)-3-amino-5-(2-fluoro-5-((7-(1,3-oxazol-2-ylmethoxy)pyrido[3,2-d]pyrimidin-4-yl)amino)-3-pyridinyl)-5-methyl-2-thia-4-azabicyclo[4.1.0]hept-3-en-1-yl)acetonitrile]",0.154,0.00174,> 400,0.00285
"C[C@]1(c2cc(NC(=O)c3ccc(OCC(F)(F)C(F)F)cn3)cnc2F)N=C(N)S[C@@]2(CF)C[C@H]21 [Example 609, N-(5-((1S,5S,6S)-3-amino-1-(fluoromethyl)-5-methyl-2-thia-4-azabicyclo[4.1.0]hept-3-en-5-yl)-6-fluoro-3-pyridinyl)-5-(2,2,3,3-tetrafluoropropoxy)-2-pyridinecarboxamide]",0.466,0.0194,> 400,0.00344
"C[C@]1(c2cc(NC(=O)c3cnc(OCC(F)(F)C(F)F)cn3)cnc2F)N=C(N)S[C@@]2(CF)C[C@H]21 [Example 610, N-(5-((1S,5S,6S)-3-amino-1-(fluoromethyl)-5-methyl-2-thia-4-azabicyclo[4.1.0]hept-3-en-5-yl)-6-fluoro-3-pyridinyl)-5-(2,2,3,3-tetrafluoropropoxy)-2-pyrazinecarboxamide]",0.193,0.00597,> 400,0.00178
"C#CCOc1cnc2c(Nc3cnc(OC)c([C@@]4(C)N=C(N)S[C@@]5(CF)C[C@H]54)c3)nccc2n1 [Example 611, N-(5-((1S,5S,6S)-3-amino-1-(fluoromethyl)-5-methyl-2-thia-4-azabicyclo[4.1.0]hept-3-en-5-yl)-6-methoxy-3-pyridinyl)-2-(2-propyn-1-yloxy)pyrido[3,4-b]pyrazin-5-amine]",0.208,0.00649,> 400,0.00663
"[2H]C([2H])([2H])C#CC([2H])([2H])Oc1cnc2c(Nc3cnc(F)c([C@@]4(C)N=C(N)S[C@@]5(CF)C[C@H]54)c3)nccc2n1 [Example 613, N-(5-((1S,5S,6S)-3-amino-1-(fluoromethyl)-5-methyl-2-thia-4-azabicyclo[4.1.0]hept-3-en-5-yl)-6-fluoro-3-pyridinyl)-2-((~2~H_5_)-2-butyn-1-yloxy)pyrido[3,4-b]pyrazin-5-amine]",0.0123,0.00098,709,0.000555
"Cc1nc(OCC(F)(F)F)cnc1C(=O)Nc1cc(F)c(F)c([C@@]2(C)N=C(N)S[C@@]3(CF)C[C@H]32)c1 [Example 614, N-(3-((1S,5S,6S)-3-amino-1-(fluoromethyl)-5-methyl-2-thia-4-azabicyclo[4.1.0]hept-3-en-5-yl)-4,5-difluorophenyl)-3-methyl-5-(2,2,2-trifluoroethoxy)-2-pyrazinecarboxamide]",0.101,0.0755,340,0.00361
"Cc1nc(OCC(F)(F)F)cnc1C(=O)Nc1cc(F)c(F)c([C@@]2(C)N=C(N)S[C@@]3(C(F)F)C[C@@H]23)c1 [Example 615, N-(3-((1S,5S,6S)-3-amino-1-(difluoromethyl)-5-methyl-2-thia-4-azabicyclo[4.1.0]hept-3-en-5-yl)-4,5-difluorophenyl)-3-methyl-5-(2,2,2-trifluoroethoxy)-2-pyrazinecarboxamide]",0.117,0.0788,102,0.00273
"C#C[C@H](C)Oc1cnc(C(=O)Nc2cc(F)c(F)c([C@@]3(C)N=C(N)S[C@@]4(C(F)F)C[C@@H]34)c2)c(C)n1 [Example 617, N-(3-((1S,5S,6S)-3-amino-1-(difluoromethyl)-5-methyl-2-thia-4-azabicyclo[4.1.0]hept-3-en-5-yl)-4,5-difluorophenyl)-3-methyl-5-(((1S)-1-methyl-2-propyn-1-yl)oxy)-2-pyrazinecarboxamide]",0.158,0.0652,> 400,0.00357
"COC[C@]12C[C@H]1[C@@](C)(c1cc(NC(=O)c3ncc(OCC(F)(F)F)nc3C)cc(F)c1F)N=C(N)S2 [Example 618, N-(3-((1S,5S,6S)-3-amino-1-(methoxymethyl)-5-methyl-2-thia-4-azabicyclo[4.1.0]hept-3-en-5-yl)-4,5-difluorophenyl)-3-methyl-5-(2,2,2-trifluoroethoxy)-2-pyrazinecarboxamide]",0.0161,0.0557,1020,0.00606
"C#C[C@H](C)Oc1cnc(C(=O)Nc2ccc(F)c([C@@]3(C)N=C(N)S[C@@]4(C(F)F)C[C@@H]34)c2)c(C)n1 [Example 619, N-(3-((1S,5S,6S)-3-amino-1-(difluoromethyl)-5-methyl-2-thia-4-azabicyclo[4.1.0]hept-3-en-5-yl)-4-fluorophenyl)-3-methyl-5-(((1S)-1-methyl-2-propyn-1-yl)oxy)-2-pyrazinecarboxamide]",0.175,0.0352,655,0.00439
"COC[C@]12C[C@H]1[C@@](C)(c1cc(NC(=O)c3ncc(OCC(F)(F)F)nc3C)ccc1F)N=C(N)S2 [Example 620, N-(3-((1S,5S,6S)-3-amino-1-(methoxymethyl)-5-methyl-2-thia-4-azabicyclo[4.1.0]hept-3-en-5-yl)-4-fluorophenyl)-3-methyl-5-(2,2,2-trifluoroethoxy)-2-pyrazinecarboxamide]",0.245,0.0437,> 400,0.00832
"C#C[C@H](C)Oc1cnc(C(=O)Nc2ccc(F)c([C@@]3(C)N=C(N)S[C@@]4(COC)C[C@H]43)c2)c(C)n1 [Example 621, N-(3-((1S,5S,6S)-3-amino-1-(methoxymethyl)-5-methyl-2-thia-4-azabicyclo[4.1.0]hept-3-en-5-yl)-4-fluorophenyl)-3-methyl-5-(((1S)-1-methyl-2-propyn-1-yl)oxy)-2-pyrazinecarboxamide]",0.148,0.0197,710,0.0113
"Cc1nc(OCC(F)(F)F)cnc1C(=O)Nc1ccc(F)c([C@@]2(C)N=C(N)S[C@@]3(C(F)F)C[C@@H]23)c1 [Example 623, N-(3-((1S,5S,6S)-3-amino-1-(difluoromethyl)-5-methyl-2-thia-4-azabicyclo[4.1.0]hept-3-en-5-yl)-4-fluorophenyl)-3-methyl-5-(2,2,2-trifluoroethoxy)-2-pyrazinecarboxamide]",0.0485,0.0671,641,0.00575

# Source: patent US20160046618A1, “Cyclopropyl Fused Thiazin-2-Amine Compounds as Beta-Secretase Inhibitors and Methods of Use” (AMGEN INC., priority 2014, published 2016)
